Test results published in US12144889B2, “Methods of treating allergic conjunctivitis” (OCULAR THERAPEUTIX, INC., priority 2020, dated 2024).

How the values were obtained:
[1] = oral, cited from earlier work; for Relative Potency: with reference to cortisol
[2] = 25° C.; cited from earlier work
[3] = Solubility of dexamethasone in water / aqueous medium; type: physicochemical; settings: aqueous medium such as the tear fluid
Source text: In certain embodiments of the present invention, dexamethasone is micronized and may have a D50 particle size of less than about 10 μm and/or a D99 particle size of less than about 50 μm. A specific suitable micronized dexamethasone for use in certain embodiments of the present invention is “Dexamethasone USP micronized” from Pfizer with a D90 particle size of equal to or less than about 5 μm (i.e., the volume portion of particles with a particle size of or below about 5 μm is 90%), and a D98 particle size of equal to or below about 10 μm (i.e., the volume portion of particles with a particle size of equal to or below about 10 μm is 98%). The “D” value such as in “D50” means that the indicated percentage by volume (such as 50 volume-% in D50 etc.) of all particles within the respective bulk material (which has a certain particle size distribution) has a particle size of or below the indicated value, e.g. a D50 particle size of below about 10 μm means that 50 volume-% of the particles have a particle size of or below about 10 μm. The particle size distribution can be commonly measured by methods known in the art, and includes sieving as well as laser diffraction methods. […]
It is believed that release of the glucocorticoid into the tear fluid is determined by the glucocorticoid's solubility in an aqueous environment. […]

solubility [3] [µg/mL]	Structure (SMILES)	Equivalent Dose [1] [mg]	Relative Potency [1]	solubility in water [2]
	C[C@]12CCC(=O)C=C1CC[C@@H]1[C@@H]2[C@@H](O)C[C@@]2(C)[C@H]1CC[C@]2(O)C(=O)CO [Cortisol (Hydrocortisone), Cortisol]	20	1	
< 100	C[C@@H]1C[C@H]2[C@@H]3CCC4=CC(=O)C=C[C@]4(C)[C@@]3(F)[C@@H](O)C[C@]2(C)[C@@]1(O)C(=O)CO [Dexamethasone, 9-Fluor-11β,17,21-trihydroxy-16α-methyl-pregna-1,4-dien-3,20-dion]	0.8		approx. 89 mg/L
	C[C@]12C=CC(=O)C=C1CC[C@@H]1[C@@H]2[C@@H](O)C[C@@]2(C)[C@H]1CC[C@]2(O)C(=O)CO [Prednisolone]	5	4	
	C[C@]12C=CC(=O)C=C1CC[C@H]1[C@@H]3C[C@@H](O)[C@](O)(C(=O)CO)[C@@]3(C)C[C@H](O)[C@@]12F [Triamcinolone]	4	5	
